The text below walks through data of ChEMBL document CHEMBL1765084, “Pyrimidine-2,4,6-trione derivatives and their inhibition of mutant SOD1-dependent protein aggregation. Toward a treatment for amyotrophic lateral sclerosis” (J Med Chem, 2011).

Converted amounts (≈) assume the structure as drawn.

For one data set, the system named is PC-12. Description: Cytoprotection against SOD1 G93A mutant induced cytotoxicity in rat PC12 cells assessed as reduction of protein aggregates by fluorescent assay. Type of data set: functional, cell-based.
The subject of data set [1] is Caco-2. The data set can be described thus: Apparent Permeability across apical side to basolateral side in human Caco2 cells at 50 uM after 2 hrs. The settings on record: caco-2, 2 h. Background: Passage across Caco-2 layers is used to estimate intestinal permeability.
The nature of data set [2]: Ratio of permeability from basolateral to apical side over apical to basolateral side in human Caco2 cells. The settings on record: Caco-2.
A further data set deals with Liver microsomes. The data set can be described thus: Half life of the compound in human liver microsomes.
For the next data set, the system named is Liver. The data set can be described thus: Half life of the compound in B6SJL mouse liver microsome. The settings on record: microsomes. For orientation: Microsomes from liver hold many membrane-bound enzymes, among them those of drug oxidation.
A further data set concerns Plasma. Description: Half life in B6SJL mouse plasma by LC-MS/MS analysis.
Data set [3] relates to Caco-2. Description: Apparent Permeability across basolateral to apical side in human Caco2 cells at 50 uM after 2 hrs. The settings on record: caco-2, 2 h.
Data set [4] can be described thus: Solubility of the compound in PBS buffer after 16 hrs.

As usually defined, the EC50 is the concentration at which the effect is half-maximal. In the case of `CCCCCCCCN1C(=O)CC(=O)N(CCc2ccccc2)C1=O`, the EC50 with PC-12 worked out at 710 nM. The same measure, in the same setting: with `O=C1CC(=O)N(CCN2CCOCC2)C(=O)N1CCc1ccc(F)cc1` the figure was more than 32000 nM; with `COc1ccc(CCN2C(=O)CC(=O)N(CCc3ccc(OC)cc3)C2=O)cc1`, 3360 nM. The same measure, in the same setting: with `O=C1CCC(=O)N(CCc2ccccc2)C(=O)N1CCc1ccccc1` the figure was more than 32000 nM; with `O=C1CC(=O)N(CCc2cccs2)C(=O)N1CCc1ccc(F)cc1`, 2160 nM; with `CCCCN1C(=O)CC(=O)NC1=O`, more than 32000 nM. Still for that read-out and setting: with `O=C1CC(=O)N(CCOc2ccccc2)C(=O)N1CCOc1ccccc1` the figure was 3260 nM. For orientation: Papp means the rate of passage across a membrane or cell layer, normalised by area and donor concentration. Usually efflux ratio stands for a quotient of directional permeabilities that is used to spot active efflux. As a reminder, the solubility is the concentration that dissolves in the medium under given conditions. Low readings indicate little dissolved substance, high ones much dissolved substance. Consider `O=C1CC(=O)N(CCCCc2ccccc2)C(=O)N1CCCCc1ccccc1`, for which the EC50 in the data set with PC-12 was determined as 680 nM. The apparent permeability coefficient (Papp) in the data set with Caco-2 [1] is recorded as 9.2 ×10⁻⁶ cm/s; in the data set on Caco-2 [3] it was 30.2 ×10⁻⁶ cm/s. The efflux ratio in data set [2] worked out at 3.3. In addition, the figures for the t1/2 with Liver microsomes, in the data set with Liver and in the data set with Plasma were 15 min, 11 min and 21.8 min, respectively. Moreover, in data set [4], the solubility was 105 µM (≈ 41.2 µg/mL). As to `O=C1CC(=O)N(CCc2ccccc2)C(=O)N1CCC1=CCCCC1`, in the data set with PC-12, the concentration for a half-maximal effect (EC50) is 1740 nM. On to `O=C1CC(=O)N(C2CCCCC2)C(=O)N1CCc1ccccc1`, for which, in the data set with PC-12, the concentration giving a half-maximal response (EC50) amounted to 1670 nM. On to `COc1ccc(CCN2C(=O)CC(=O)N(CCc3ccccc3)C2=O)cc1`, for which, in the data set on PC-12, the concentration for a half-maximal effect (EC50) was 2940 nM. Consider `O=C1CC(=O)N(CCc2ccccc2F)C(=O)N1CCc1ccccc1F`, for which the half-maximal effective concentration (EC50) in the data set on PC-12 was found to be 3290 nM.

Regarding `O=C1C(=CC2CCCCC2)C(=O)N(CCc2ccccc2)C(=O)N1CCc1ccccc1`, the EC50 in the data set with PC-12 is more than 32000 nM.

As to `CC(C)OCCN1C(=O)CC(=O)N(CCc2ccc(F)cc2)C1=O`, the concentration for a half-maximal effect (EC50) in the data set with PC-12 came out at 2970 nM. In the case of `O=C1CC(=O)N(CCc2ccc(F)cc2)C(=O)N1CCOc1ccccc1`, the EC50 in the data set on PC-12 is 1320 nM. On the same count and under the same terms, with `O=C1CC(=O)N(CC(c2ccccc2)c2ccccc2)C(=O)N1CCCCc1ccccc1` the figure was 3610 nM; with `O=C1CC(=O)N(CCc2cccc(Cl)c2)C(=O)N1CCc1cccc(Cl)c1`, 2970 nM; with `Cc1cc(C=C2C(=O)N(CCc3ccccc3)C(=O)N(CCc3ccccc3)C2=O)c(C)n1-c1ccccc1`, 870 nM. Same read-out and setting: with `O=C1CC(=O)N(CCC(c2ccccc2)c2ccccc2)C(=O)N1CCC(c1ccccc1)c1ccccc1` the figure was 1390 nM. On the same count and under the same terms, the value for `O=C1CC(=O)N(C2CCCCC2)C(=O)N1` was more than 32000 nM; that for `COc1cc(=O)n(CCc2ccccc2)c(=O)n1CCc1ccccc1` was more than 32000 nM. Take `O=C1NC(=O)N(C2CCCCC2)C1=O`: in the data set on PC-12, the 50% effective concentration (EC50) was more than 32000 nM. Regarding `O=C1C(=Cc2ccc(OCc3ccccc3)cc2)C(=O)N(CCc2ccccc2)C(=O)N1CCc1ccccc1`, the EC50 with PC-12 stood at 2840 nM. On to `O=C1CC(=O)N(CCc2ccccc2)C(=O)N1CCCc1ccccc1`, for which, in the data set on PC-12, the EC50 is 1880 nM. With `O=C1C(=Cc2ccc[nH]2)C(=O)N(CCc2ccccc2)C(=O)N1CCc1ccccc1`, the concentration for a half-maximal effect (EC50) in the data set on PC-12 amounted to 3550 nM.
